The record followed here is ChEMBL document CHEMBL4831559, “Antitarget Selectivity and Tolerability of Novel Pyrrolo[2,3-d]pyrimidine RET Inhibitors” (ACS Med Chem Lett, 2021).

The structures appear in SMILES notation. Active and inactive are the calls of the source.

The nature of data set [1]: Half life in BALB/c mouse at 10 mg/kg, po measured by LC-MS/MS analysis. It is filed as ADME, organism-based. Particulars: in vivo.
A short description of data set [2]: AUC in nude mouse xenografted with KIF5B-RET BaF3 cells xenografted at 3 mg/kg, po qd for 14 days. It counts as ADME, organism-based. Set-up: time 14 day, dose 3 mg/kg. As to conditions: in vivo.
The nature of data set [3]: Cmax in BALB/c mouse at 2 mg/kg, iv measured by LC-MS/MS analysis. It is filed as ADME, organism-based. The arrangement: route intravenous, dose 2 mg/kg. Particulars: in vivo.
A short description of data set [4]: Half life in BALB/c mouse at 2 mg/kg, iv measured by LC-MS/MS analysis. It is filed as ADME, organism-based. Particulars: in vivo.
Data set [5] is described as follows: Toxicity in nude mouse transfected with mouse KIF5B-RET BaF3 cells assessed as adverse effect at 10 mg/kg, po qd measured after 14 days. It is filed as organism-based. As to conditions: in vivo, 336 h, time 14 day.
Data set [6] is described as follows: Toxicity in nude mouse transfected with mouse KIF5B-RET BaF3 cells assessed as adverse effect at 30 mg/kg, po qd measured after 14 days. It is filed as organism-based. As to conditions: in vivo, 336 h, time 14 day.
A short description of data set [7]: AUC in BALB/c mouse at 10 mg/kg, po measured by LC-MS/MS analysis. It counts as ADME, organism-based. Set-up: dose 10 mg/kg. Particulars: in vivo.
Data set [8] in a line: fCmax in nude mouse xenografted with KIF5B-RET BaF3 cells xenografted at 3 mg/kg, po qd for 4 days. As to conditions: in vivo, 96 h.
Data set [9] is described as follows: Volume of distribution at steady state in BALB/c mouse at 2 mg/kg, iv measured by LC-MS/MS analysis. Particulars: in vivo, read-out: Vdss. It is filed as ADME, organism-based.
Data set [10] relates to BaF3. In words: Antitumor activity against mouse KIF5B-RET BaF3 cells xenografted in nude mouse assessed as tumor regression at 3 mg/kg, po qd measured after 12 days. As to conditions: time 12.0 day.
Data set [11] has as its target T1, Voltage-gated inwardly rectifying potassium channel KCNH2 (Homo sapiens, UniProt Q12809). In words: Displacement of [3H]-dofetilide from human ERG expressed in CHO cell after 90 mins by microbeta liquid scintillation counting method. It is filed as cell-based.
Data set [12] in a line: Cmax nude mouse xenografted with KIF5B-RET BaF3 cells xenografted at 3 mg/kg, po qd for 14 days. It is filed as ADME, organism-based. The arrangement: route oral, time 14 day, dose 3 mg/kg. As to conditions: in vivo.
Data set [13] is described as follows: fAUC in nude mouse xenografted with KIF5B-RET BaF3 cells xenografted at 3 mg/kg, po qd for 4 days. As to conditions: in vivo, 96 h.
Data set [14] is described as follows: Cmax in BALB/c mouse at 10 mg/kg, po measured by LC-MS/MS analysis. Set-up: route oral, dose 10 mg/kg. It counts as ADME, organism-based. As to conditions: in vivo.
For data set [15], the system named is BaF3. In words: cells. Particulars: Mus musculus, BaF3, 48 h.
Description: Antiproliferative activity against mouse BaF3 cells assessed as reduction in cell proliferation incubated for 48 hrs by cell proliferation assay
A short description of data set [16]: Plasma protein binding in mouse at 5 uM measured after 16 hrs by LC-MS/MS based rapid equilibrium dialysis analysis. It counts as ADME, cell-free. Particulars: read-out: PPB (converted).
Data set [17] is described as follows: Clearance in BALB/c mouse at 2 mg/kg, iv measured by LC-MS/MS analysis. It counts as ADME, organism-based. Particulars: in vivo.
A short description of data set [18]: AUC in BALB/c mouse at 2 mg/kg, iv measured by LC-MS/MS analysis. It is filed as ADME, organism-based. Set-up: dose 2 mg/kg. Particulars: in vivo.
A short description of data set [19]: Oral bioavailability in BALB/c mouse at 10 mg/kg measured by LC-MS/MS analysis. It counts as ADME, organism-based. As to conditions: in vivo.
The target of data set [20] is T1, Voltage-gated inwardly rectifying potassium channel KCNH2. Put plainly: Inhibition of human ERG expressed in CHO cells by manual patch clamp assay. It is filed as cell-based.
Data set [21] in a line: AUC in BALB/c mouse at 13.5 mg/kg, po measured by LC-MS/MS analysis. It is filed as ADME, organism-based. Set-up: dose 13.5 mg/kg. As to conditions: in vivo.
In data set [22] the target is Proto-oncogene tyrosine-protein kinase receptor Ret (Homo sapiens, UniProt P07949). Put plainly: Inhibition of RET (658 to 1072) (unknown origin) by HTRF assay.
Proto-oncogene tyrosine-protein kinase receptor Ret, sequence (P07949 whole entry): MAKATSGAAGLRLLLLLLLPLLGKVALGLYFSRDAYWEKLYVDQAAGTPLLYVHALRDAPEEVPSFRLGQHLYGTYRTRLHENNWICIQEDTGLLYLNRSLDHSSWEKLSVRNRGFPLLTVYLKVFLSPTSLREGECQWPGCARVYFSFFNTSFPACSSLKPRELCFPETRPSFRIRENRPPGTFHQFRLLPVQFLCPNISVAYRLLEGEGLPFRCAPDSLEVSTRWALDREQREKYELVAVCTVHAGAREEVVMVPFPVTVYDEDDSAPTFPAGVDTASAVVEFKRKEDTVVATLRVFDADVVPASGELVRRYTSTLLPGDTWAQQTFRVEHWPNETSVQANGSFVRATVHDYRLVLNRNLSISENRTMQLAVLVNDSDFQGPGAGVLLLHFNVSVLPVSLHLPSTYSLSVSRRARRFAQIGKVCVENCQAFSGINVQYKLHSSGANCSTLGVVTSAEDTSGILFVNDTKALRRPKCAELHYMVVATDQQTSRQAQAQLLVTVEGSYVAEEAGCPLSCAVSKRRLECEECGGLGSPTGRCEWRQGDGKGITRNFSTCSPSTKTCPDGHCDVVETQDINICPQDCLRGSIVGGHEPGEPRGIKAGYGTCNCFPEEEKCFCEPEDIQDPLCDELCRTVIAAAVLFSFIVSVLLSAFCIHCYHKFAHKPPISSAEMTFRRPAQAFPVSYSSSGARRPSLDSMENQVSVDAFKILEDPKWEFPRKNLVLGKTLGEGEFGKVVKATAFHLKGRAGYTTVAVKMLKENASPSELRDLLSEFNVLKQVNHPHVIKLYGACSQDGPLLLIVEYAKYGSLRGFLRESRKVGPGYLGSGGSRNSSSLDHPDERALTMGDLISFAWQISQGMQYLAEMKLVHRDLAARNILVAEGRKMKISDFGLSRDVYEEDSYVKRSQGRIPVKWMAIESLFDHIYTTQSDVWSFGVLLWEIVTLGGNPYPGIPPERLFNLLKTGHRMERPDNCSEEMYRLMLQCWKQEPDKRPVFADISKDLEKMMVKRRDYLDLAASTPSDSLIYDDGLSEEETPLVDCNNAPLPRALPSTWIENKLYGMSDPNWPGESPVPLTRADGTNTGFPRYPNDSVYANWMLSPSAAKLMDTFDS
Data set [23] in a line: Volume of distribution at steady state in BALB/c mouse at 3.4 mg/kg, iv measured by LC-MS/MS analysis. It is filed as ADME, organism-based. Particulars: in vivo, read-out: Vdss.
Data set [24] is described as follows: AUC in BALB/c mouse at 3.4 mg/kg, iv measured by LC-MS/MS analysis. As to conditions: in vivo. Set-up: dose 3.4 mg/kg. It is filed as ADME, organism-based.
Data set [25] is described as follows: Cmax in BALB/c mouse at 3.4 mg/kg, iv measured by LC-MS/MS analysis. It counts as ADME, organism-based. The arrangement: route intravenous, dose 3.4 mg/kg. As to conditions: in vivo.
Data set [26] in a line: Clearance in BALB/c mouse at 3.4 mg/kg, iv measured by LC-MS/MS analysis. It is filed as ADME, organism-based. As to conditions: in vivo.
The nature of data set [27]: Half life in BALB/c mouse at 13.5 mg/kg, po measured by LC-MS/MS analysis. It counts as ADME, organism-based. As to conditions: in vivo.
Data set [28] in a line: Cmax in BALB/c mouse at 13.5 mg/kg, po measured by LC-MS/MS analysis. It counts as ADME, organism-based. The arrangement: route oral, dose 13.5 mg/kg. Particulars: in vivo.
The nature of data set [29]: Oral bioavailability in BALB/c mouse at 13.5 mg/kg measured by LC-MS/MS analysis. As to conditions: in vivo. It is filed as ADME, organism-based.
Data set [30] in a line: Half life in BALB/c mouse at 3.4 mg/kg, iv measured by LC-MS/MS analysis. It counts as ADME, organism-based. Particulars: in vivo.
In another data set the target is Bcr/Abl fusion protein (Homo sapiens, UniProt P00519). In words: Inhibition of BCR-ABL (unknown origin) expressed in mouse BaF3 cells assessed as reduction in cell proliferation incubated for 48 hrs by cell proliferation assay. It counts as cell-based.
Bcr/Abl fusion protein, sequence (P00519 whole entry, the tested form may be a part): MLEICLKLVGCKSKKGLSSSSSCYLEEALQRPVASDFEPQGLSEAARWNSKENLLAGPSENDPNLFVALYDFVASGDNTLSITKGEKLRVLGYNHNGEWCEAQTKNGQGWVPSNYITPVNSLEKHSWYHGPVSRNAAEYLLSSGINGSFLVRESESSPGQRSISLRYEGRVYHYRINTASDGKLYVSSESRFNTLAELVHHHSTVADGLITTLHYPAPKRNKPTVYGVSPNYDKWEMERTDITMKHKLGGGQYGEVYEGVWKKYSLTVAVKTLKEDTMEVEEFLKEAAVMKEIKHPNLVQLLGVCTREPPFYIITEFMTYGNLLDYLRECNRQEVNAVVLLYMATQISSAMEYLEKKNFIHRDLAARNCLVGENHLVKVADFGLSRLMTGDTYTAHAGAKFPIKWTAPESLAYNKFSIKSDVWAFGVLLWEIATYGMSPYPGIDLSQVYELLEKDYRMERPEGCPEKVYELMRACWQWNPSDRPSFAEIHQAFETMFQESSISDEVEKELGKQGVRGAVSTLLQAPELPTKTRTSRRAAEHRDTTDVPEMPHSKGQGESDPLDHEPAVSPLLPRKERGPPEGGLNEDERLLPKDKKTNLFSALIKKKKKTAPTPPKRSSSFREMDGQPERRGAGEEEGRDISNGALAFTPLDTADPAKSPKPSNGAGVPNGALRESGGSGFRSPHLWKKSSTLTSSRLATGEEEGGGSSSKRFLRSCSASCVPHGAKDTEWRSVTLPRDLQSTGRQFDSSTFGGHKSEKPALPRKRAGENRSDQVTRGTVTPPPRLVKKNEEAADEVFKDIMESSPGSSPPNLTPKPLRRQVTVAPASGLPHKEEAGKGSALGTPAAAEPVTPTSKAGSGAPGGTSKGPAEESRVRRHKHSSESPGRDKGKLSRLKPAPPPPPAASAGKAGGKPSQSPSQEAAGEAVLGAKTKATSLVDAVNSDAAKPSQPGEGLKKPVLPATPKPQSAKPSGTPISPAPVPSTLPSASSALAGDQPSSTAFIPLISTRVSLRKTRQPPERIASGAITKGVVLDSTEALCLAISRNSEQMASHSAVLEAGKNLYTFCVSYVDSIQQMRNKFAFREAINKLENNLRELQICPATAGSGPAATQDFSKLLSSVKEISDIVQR
Bcr/Abl fusion protein, sequence (P11274 whole entry, further chain, the tested form may be a part): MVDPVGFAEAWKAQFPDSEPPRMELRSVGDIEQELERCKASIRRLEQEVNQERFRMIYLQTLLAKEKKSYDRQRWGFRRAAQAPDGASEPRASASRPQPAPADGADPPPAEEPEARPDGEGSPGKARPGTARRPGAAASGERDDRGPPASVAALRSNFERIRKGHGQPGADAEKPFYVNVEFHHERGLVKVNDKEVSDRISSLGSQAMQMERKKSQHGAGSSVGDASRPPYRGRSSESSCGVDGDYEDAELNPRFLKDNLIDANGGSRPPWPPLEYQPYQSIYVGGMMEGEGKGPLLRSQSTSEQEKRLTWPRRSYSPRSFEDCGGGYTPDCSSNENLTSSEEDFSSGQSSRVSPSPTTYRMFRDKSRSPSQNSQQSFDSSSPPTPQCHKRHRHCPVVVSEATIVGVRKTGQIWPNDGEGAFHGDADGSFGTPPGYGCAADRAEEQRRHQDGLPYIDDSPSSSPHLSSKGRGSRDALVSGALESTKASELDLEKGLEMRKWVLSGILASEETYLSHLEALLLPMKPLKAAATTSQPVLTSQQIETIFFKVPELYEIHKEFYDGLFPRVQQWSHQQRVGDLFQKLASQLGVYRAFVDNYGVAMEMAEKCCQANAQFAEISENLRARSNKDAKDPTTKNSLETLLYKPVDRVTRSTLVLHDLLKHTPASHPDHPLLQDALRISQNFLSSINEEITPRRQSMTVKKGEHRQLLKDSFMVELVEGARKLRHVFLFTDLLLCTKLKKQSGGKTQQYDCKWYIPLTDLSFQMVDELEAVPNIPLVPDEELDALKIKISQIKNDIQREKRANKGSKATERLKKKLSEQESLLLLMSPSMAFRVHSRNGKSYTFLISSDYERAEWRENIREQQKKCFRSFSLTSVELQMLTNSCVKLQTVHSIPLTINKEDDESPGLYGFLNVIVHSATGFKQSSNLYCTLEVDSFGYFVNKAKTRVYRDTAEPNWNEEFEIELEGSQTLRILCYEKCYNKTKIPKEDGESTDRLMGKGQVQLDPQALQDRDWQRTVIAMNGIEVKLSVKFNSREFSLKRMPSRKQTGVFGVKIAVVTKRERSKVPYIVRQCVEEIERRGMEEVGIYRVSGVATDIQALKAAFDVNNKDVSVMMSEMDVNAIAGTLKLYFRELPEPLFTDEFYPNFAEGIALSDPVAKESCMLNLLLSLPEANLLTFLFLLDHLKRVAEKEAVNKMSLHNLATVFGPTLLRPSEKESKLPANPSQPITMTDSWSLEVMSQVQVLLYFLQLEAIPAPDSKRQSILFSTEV

T1 sequence (Q12809 whole entry): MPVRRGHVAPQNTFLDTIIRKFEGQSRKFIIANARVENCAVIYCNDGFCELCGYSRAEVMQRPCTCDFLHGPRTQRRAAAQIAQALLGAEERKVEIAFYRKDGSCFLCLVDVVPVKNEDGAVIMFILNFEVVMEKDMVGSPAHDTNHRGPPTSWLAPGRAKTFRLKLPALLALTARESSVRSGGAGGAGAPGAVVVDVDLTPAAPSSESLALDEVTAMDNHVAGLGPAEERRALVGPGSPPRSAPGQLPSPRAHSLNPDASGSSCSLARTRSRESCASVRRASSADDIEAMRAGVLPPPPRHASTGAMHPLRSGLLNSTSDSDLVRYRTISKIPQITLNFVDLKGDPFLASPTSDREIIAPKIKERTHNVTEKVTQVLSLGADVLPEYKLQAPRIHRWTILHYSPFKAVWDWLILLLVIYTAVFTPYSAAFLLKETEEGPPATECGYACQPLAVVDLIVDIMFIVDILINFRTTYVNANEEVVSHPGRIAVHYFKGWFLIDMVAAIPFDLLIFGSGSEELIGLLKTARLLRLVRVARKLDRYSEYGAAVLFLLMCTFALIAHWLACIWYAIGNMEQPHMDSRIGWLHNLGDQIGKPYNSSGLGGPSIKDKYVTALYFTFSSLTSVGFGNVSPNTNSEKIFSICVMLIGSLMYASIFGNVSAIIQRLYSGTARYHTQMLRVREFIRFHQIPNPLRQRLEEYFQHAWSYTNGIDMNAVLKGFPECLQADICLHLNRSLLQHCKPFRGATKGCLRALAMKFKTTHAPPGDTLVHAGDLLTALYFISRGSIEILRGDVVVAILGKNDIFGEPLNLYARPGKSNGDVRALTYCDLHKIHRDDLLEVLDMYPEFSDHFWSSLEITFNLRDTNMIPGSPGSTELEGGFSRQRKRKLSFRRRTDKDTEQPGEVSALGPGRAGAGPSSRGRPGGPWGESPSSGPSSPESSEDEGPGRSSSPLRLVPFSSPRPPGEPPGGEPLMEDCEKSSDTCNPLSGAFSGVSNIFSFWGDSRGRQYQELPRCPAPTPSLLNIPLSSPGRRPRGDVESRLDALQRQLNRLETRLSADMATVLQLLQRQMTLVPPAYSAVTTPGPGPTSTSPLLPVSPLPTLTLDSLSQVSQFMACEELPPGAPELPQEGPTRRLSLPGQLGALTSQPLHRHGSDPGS

For `COC(=O)NC12CCC(n3cc(-c4ccc(Cl)c(N)c4)c4c(N)ncnc43)(CC1)CC2`, the half-life in data set [1] was 22 h; in data set [4], 10 h. The AUC at 336 h in [2] turned out to be 106 µM·h. The Cmax turned out to be 5.6 µM in data set [3], 7.4 µM in data set [12] and 9.5 µM in data set [14]. Further, the Activity entry in [5] and in data set [6] was “Non-Toxic” each time. The results for the AUC in data set [7] and in data set [18] were 160 µM·h and 54 µM·h, respectively. In data set [8], the fCmax was determined as 0.031 µM. Moreover, the Vd in data set [9] turned out to be 1.1 L/kg. Also, the result in the data set on BaF3 [10] was Active. The IC50 in data set [11] came out at 9.9 µM; in the data set with BaF3 [15], 2.6 µM; in [20] it was 3 µM. This compound also had a fAUC in [13] of 0.45 µM·h. In addition, the fraction unbound at 16 h, 5 µM in data set [16] was 0.0042. The compound further gave a clearance in [17] of 0.084 L/h/kg. The bioavailability in data set [19] amounted to 58%.
With `CC(=O)N1CCN([C@H]2C[C@@H](n3cc(-c4cc(O)ccc4F)c4c(N)ncnc43)C2)CC1`, the AUC in [21] worked out at 0.3 µM·h; in data set [24], 2 µM·h. The IC50 was 0.00054 µM in data set [22] and 4.2 µM on Bcr/Abl fusion protein. Also, the Vd in data set [23] worked out at 1.4 L/kg. In addition, the Cmax turned out to be 6.4 µM in data set [25] and 0.2 µM in data set [28]. For the same compound, in [26], the clearance was found to be 3.9 L/h/kg. Besides, the half-life in data set [27] was 1.3 h; in data set [30], 1.6 h. Also, the bioavailability in data set [29] stood at 4%.
In the case of `CC(=O)N1CCN([C@H]2C[C@@H](n3cc(-c4ccc(Cl)c(O)c4)c4c(N)ncnc43)C2)CC1`, half-maximal inhibition with BaF3 [15] (IC50) was put at 3.7 µM.
On the same count and under the same terms, to `CC(=O)N1CCN([C@H]2C[C@@H](n3cc(-c4ccc(O)cc4)c4c(N)ncnc43)C2)CC1` belongs more than 10 µM; to `CC(=O)N1CCN([C@H]2C[C@@H](n3cc(-c4ccccc4O)c4c(N)ncnc43)C2)CC1`, more than 10 µM.
As to `Nc1ncnc2c1c(-c1cccc(O)c1)cn2[C@H]1C[C@@H](CO)C1`, the IC50 on Bcr/Abl fusion protein was 0.043 µM.

The half-life is the time needed for the level to fall by half in the phase considered. A low value points to rapid decline. A word on the AUC: it is the area under the concentration-time curve, a measure of exposure. The Cmax is the peak of the concentration-time curve. Usually IC50 stands for the concentration that inhibits the measured activity by half. The term clearance denotes a measure of how efficiently the substance is removed, as volume per time. Lower therefore signals a low capacity for elimination. What is called bioavailability is the share of a dose that reaches the circulation, judged against a reference dose that is usually intravenous. Read a low bioavailability as little systemic uptake.
